In patent publication US12252524B2, “GIP/GLP1 co-agonist compounds” (Eli Lilly and Company, priority 2018, dated 2025):
Numbered stars: 1 amine (or outer) side, 2 acyl side, 3 side chain; on linkers, the order of the positions; unused ones are H or OH. Square brackets hold non-standard residues; d marks the D form. Side chains are listed from the residue outwards. Peptide text beside a SMILES is read from it. * marks the point of attachment. C20 diacid = O=C(O)CCCCCCCCCCCCCCCCCCC(=O)*; C18 diacid = O=C(O)CCCCCCCCCCCCCCCCC(=O)*; αMePhe(2-F) = C[C@](N)(Cc1ccccc1F)C(=O)O; γGlu = O=C(O)[C@H](CCC(=O)[*:2])N[*:1]; αMeY = C[C@](N)(Cc1ccc(O)cc1)C(=O)O; αMeL = CC(C)C[C@](C)(N)C(=O)O; Nle = CCCC[C@H](N)C(=O)O; Orn = NCCC[C@H](N)C(=O)O; AEEA = NCCOCCOCC(=O)O; Aib = CC(C)(N)C(=O)O

Assays:
[1] = target: human GLP-1R (Homo sapiens, UniProt P43220); test: [125I]-GLP-1 binding (SPA), human GLP-1 receptor; parameters: expressed in transfected cells; crude membranes; settings: read-out: hGLP1R Ki, (nM) (SEM, n)
In short: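 Ki values are geometric means with SEM over independent replicates on different days, derived from IC50s fitted by four-parameter nonlinear regression. The assay used crude cell membranes in HEPES buffer, pH 7.4, containing CaCl2, MgCl2, bacitracin and TWEEN-20.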

[2] = target: T1, human GIP receptor (Homo sapiens, UniProt P48546); test: [125I]-GIP binding (SPA), human GIP receptor; settings: read-out: hGIPR Ki, nM (SEM, n)
T1 construct: expressed in transfected cells; crude membranes
T1 sequence (P48546 22-466): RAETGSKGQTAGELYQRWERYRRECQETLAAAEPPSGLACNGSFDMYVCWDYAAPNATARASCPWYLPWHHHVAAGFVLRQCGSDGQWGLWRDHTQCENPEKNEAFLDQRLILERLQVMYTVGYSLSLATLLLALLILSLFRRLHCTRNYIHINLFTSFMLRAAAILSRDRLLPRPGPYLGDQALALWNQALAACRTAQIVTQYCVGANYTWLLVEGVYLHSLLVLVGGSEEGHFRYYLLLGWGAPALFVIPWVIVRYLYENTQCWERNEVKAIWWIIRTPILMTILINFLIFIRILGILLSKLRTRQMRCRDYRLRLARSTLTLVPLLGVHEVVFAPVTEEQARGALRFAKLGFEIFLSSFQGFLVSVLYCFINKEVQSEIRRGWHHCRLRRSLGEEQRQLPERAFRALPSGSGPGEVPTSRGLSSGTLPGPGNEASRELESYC

[3] = target: T2, gastric inhibitory peptide receptor (GIPR) (Homo sapiens, UniProt P48546); test: cAMP pharmacological functional assay in presence of casein, hGIPR; assay type: cell-based; settings: HEK293 cells expressing hGIPR, 0.1% Casein, geometric mean; read-out: hGIPR cAMP Rel EC50 nM (SEM, n)
T2 sequence (P48546 22-466): T1 sequence (P48546 22-466)

[4] = target: human GLP-1 receptor (GLP-1R) (Homo sapiens, UniProt P43220); test: cAMP pharmacological functional assay in presence of casein, hGLP-1R; assay type: cell-based; settings: HEK293 cells expressing hGLP-1R, 0.1% Casein, geometric mean; read-out: hGLP1R cAMP Rel EC50 nM (SEM, n)
[5] = target: T3, human Gcg receptor (Homo sapiens, UniProt P47871); test: [125I]-Glucagon binding (SPA), human Gcg receptor; settings: read-out: hGLcgR Ki, nM (SEM, n)
T3 construct: expressed in transfected cells; crude membranes
In short: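 Crude membranes from cells expressing the receptor, prepared by hypotonic lysis in 50 mM Tris HCl pH 7.5 with protease inhibitors, homogenization and differential centrifugation, were used in a WGA-bead SPA. Binding buffer: 25 mM HEPES pH 7.4, 2.5 mM CaCl2, 1 mM MgCl2, bacitracin, Tween-20.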

T3 sequence (P47871 26-477): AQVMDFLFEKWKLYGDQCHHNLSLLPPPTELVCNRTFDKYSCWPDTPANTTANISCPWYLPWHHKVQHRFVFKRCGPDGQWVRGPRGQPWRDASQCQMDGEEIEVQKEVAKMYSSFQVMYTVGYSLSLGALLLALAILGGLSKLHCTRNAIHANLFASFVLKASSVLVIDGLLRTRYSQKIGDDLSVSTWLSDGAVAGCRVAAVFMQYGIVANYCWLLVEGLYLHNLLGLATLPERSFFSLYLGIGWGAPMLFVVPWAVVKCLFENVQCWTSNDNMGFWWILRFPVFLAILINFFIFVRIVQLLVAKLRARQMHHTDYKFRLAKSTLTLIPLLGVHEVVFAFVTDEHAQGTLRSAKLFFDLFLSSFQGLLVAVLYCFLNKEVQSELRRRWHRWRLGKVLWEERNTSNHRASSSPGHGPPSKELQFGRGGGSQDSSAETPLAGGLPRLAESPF
Sequence of human GLP-1 receptor (GLP-1R) (P43220 24-463): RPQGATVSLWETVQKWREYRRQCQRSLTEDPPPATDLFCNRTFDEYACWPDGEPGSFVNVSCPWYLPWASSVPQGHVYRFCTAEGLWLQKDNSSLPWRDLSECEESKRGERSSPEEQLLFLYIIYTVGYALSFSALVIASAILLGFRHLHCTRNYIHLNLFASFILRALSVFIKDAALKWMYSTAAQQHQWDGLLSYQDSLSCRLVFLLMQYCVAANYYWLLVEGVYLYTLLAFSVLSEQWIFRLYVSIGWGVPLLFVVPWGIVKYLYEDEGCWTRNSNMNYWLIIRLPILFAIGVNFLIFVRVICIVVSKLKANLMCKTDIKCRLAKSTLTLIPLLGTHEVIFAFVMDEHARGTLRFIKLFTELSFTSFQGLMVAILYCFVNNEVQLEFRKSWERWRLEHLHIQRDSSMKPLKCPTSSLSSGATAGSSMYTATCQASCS
Sequence of human GLP-1R (P43220 24-463): as above

Structure (SMILES) | Ki [1] [nM] | Ki [2] [nM] | EC50 [3] [nM] | EC50 [4] [nM] | Ki [5] [nM]
CC[C@H](C)[C@H](NC(=O)[C@H](CC(C)C)NC(=O)[C@](C)(Cc1ccc(O)cc1)NC(=O)[C@@H](CCC(=O)O)NC(=O)[C@@H](NC(=O)[C@H](Cc1ccccc1)NC(=O)[C@H](C)NC(=O)C(C)(C)NC(=O)[C@H](CCC(N)=O)NC(=O)[C@H](C)NC(=O)[C@H](CCCCNC(=O)COCCOCCNC(=O)COCCOCCNC(=O)CC[C@H](NC(=O)CCCCCCCCCCCCCCCCC(=O)O)C(=O)O)NC(=O)[C@H](CCCN)NC(=O)[C@H](CC(=O)O)NC(=O)[C@H](CC(C)C)NC(=O)[C@](C)(CC(C)C)NC(=O)[C@@H](NC(=O)[C@H](CO)NC(=O)[C@H](C)NC(=O)[C@H](CC(=O)O)NC(=O)[C@H](CO)NC(=O)[C@@H](NC(=O)[C@](C)(Cc1ccccc1F)NC(=O)[C@@H](NC(=O)CNC(=O)[C@H](CCC(=O)O)NC(=O)C(C)(C)NC(=O)[C@@H](N)Cc1ccc(O)cc1)[C@@H](C)O)[C@@H](C)O)[C@@H](C)CC)[C@@H](C)CC)C(=O)N[C@@H](CCC(=O)O)C(=O)NCC(=O)NCC(=O)N1CCC[C@H]1C(=O)N[C@@H](CO)C(=O)N[C@@H](CO)C(=O)NCC(=O)N[C@@H](C)C(=O)N1CCC[C@H]1C(=O)N1CCC[C@H]1C(=O)N1CCC[C@H]1C(=O)N[C@@H](CO)C(N)=O [Example 246] (H-Y[Aib]EGT[αMePhe(2-F)]TSDASI[αMeL]LD[Orn]K([AEEA-AEEA-γGlu-C18 diacid])AQ[Aib]AFI[dE][αMeY]LIEGGPSSGAPPPS-NH2) | 0.812 | 0.0509 | 0.0258 | 0.0144 | > 1010
CC[C@H](C)[C@H](NC(=O)[C@H](CC(C)C)NC(=O)[C@H](Cc1ccc(O)cc1)NC(=O)[C@@H](CCC(=O)O)NC(=O)[C@@H](NC(=O)[C@H](Cc1ccccc1)NC(=O)[C@H](CCC(=O)O)NC(=O)C(C)(C)NC(=O)[C@H](CCC(N)=O)NC(=O)[C@H](C)NC(=O)[C@H](CCCCNC(=O)COCCOCCNC(=O)COCCOCCNC(=O)CC[C@H](NC(=O)CCCCCCCCCCCCCCCCC(=O)O)C(=O)O)NC(=O)[C@H](CCCN)NC(=O)[C@H](CC(=O)O)NC(=O)[C@H](CC(C)C)NC(=O)C(C)(C)NC(=O)[C@@H](NC(=O)[C@H](CO)NC(=O)[C@H](Cc1ccc(O)cc1)NC(=O)[C@H](CC(=O)O)NC(=O)[C@H](CO)NC(=O)[C@@H](NC(=O)C(C)(Cc1ccccc1F)NC(=O)[C@@H](NC(=O)CNC(=O)[C@H](CCC(=O)O)NC(=O)C(C)(C)NC(=O)[C@@H](N)Cc1ccc(O)cc1)[C@@H](C)O)[C@@H](C)O)[C@@H](C)CC)[C@@H](C)CC)C(=O)N[C@@H](CCC(=O)O)C(=O)NCC(=O)NCC(=O)N1CCC[C@H]1C(=O)N[C@@H](CO)C(=O)N[C@@H](CO)C(=O)NCC(=O)N[C@@H](C)C(=O)N1CCC[C@H]1C(=O)N1CCC[C@H]1C(=O)N1CCC[C@H]1C(=O)N[C@@H](CO)C(N)=O (stereo partly shown) [Example 247] | 4.39 | > 55.1 | 0.0622 | 0.0491 | > 1100
CC[C@H](C)[C@H](NC(=O)[C@H](CC(C)C)NC(=O)[C@H](Cc1ccc(O)cc1)NC(=O)[C@@H](CCC(=O)O)NC(=O)[C@@H](NC(=O)[C@H](Cc1ccccc1)NC(=O)[C@H](CCC(=O)O)NC(=O)C(C)(C)NC(=O)[C@H](CCC(N)=O)NC(=O)[C@H](C)NC(=O)[C@H](CCCCNC(=O)COCCOCCNC(=O)COCCOCCNC(=O)CC[C@H](NC(=O)CCCCCCCCCCCCCCCCC(=O)O)C(=O)O)NC(=O)[C@H](CCCN)NC(=O)[C@H](CC(=O)O)NC(=O)[C@H](CC(C)C)NC(=O)[C@H](CC(C)C)NC(=O)[C@@H](NC(=O)[C@H](CO)NC(=O)[C@H](Cc1ccc(O)cc1)NC(=O)[C@H](CC(=O)O)NC(=O)[C@H](CO)NC(=O)[C@@H](NC(=O)[C@](C)(Cc1ccccc1F)NC(=O)[C@@H](NC(=O)CNC(=O)[C@H](CCC(=O)O)NC(=O)C(C)(C)NC(=O)[C@@H](N)Cc1ccc(O)cc1)[C@@H](C)O)[C@@H](C)O)[C@@H](C)CC)[C@@H](C)CC)C(=O)N[C@@H](CCC(=O)O)C(=O)NCC(=O)NCC(=O)N1CCC[C@H]1C(=O)N[C@@H](CO)C(=O)N[C@@H](CO)C(=O)NCC(=O)N[C@@H](C)C(=O)N1CCC[C@H]1C(=O)N1CCC[C@H]1C(=O)N1CCC[C@H]1C(=O)N[C@@H](CO)C(N)=O [Example 248] (H-Y[Aib]EGT[αMePhe(2-F)]TSDYSILLD[Orn]K([AEEA-AEEA-γGlu-C18 diacid])AQ[Aib]EFI[dE]YLIEGGPSSGAPPPS-NH2) | 2.4 | 0.0397 | 0.0328 | 0.0428 | > 1050
CCCC[C@H](NC(=O)[C@@H](NC(=O)[C@H](CO)NC(=O)[C@H](Cc1ccc(O)cc1)NC(=O)[C@H](CC(=O)O)NC(=O)[C@H](CO)NC(=O)[C@@H](NC(=O)[C@](C)(Cc1ccccc1F)NC(=O)[C@@H](NC(=O)CNC(=O)[C@H](CCC(=O)O)NC(=O)C(C)(C)NC(=O)[C@@H](N)Cc1ccc(O)cc1)[C@@H](C)O)[C@@H](C)O)[C@@H](C)CC)C(=O)N[C@@H](CC(C)C)C(=O)N[C@@H](CC(=O)O)C(=O)N[C@@H](CCCN)C(=O)N[C@@H](CCCCNC(=O)COCCOCCNC(=O)COCCOCCNC(=O)CC[C@H](NC(=O)CCCCCCCCCCCCCCCCC(=O)O)C(=O)O)C(=O)N[C@@H](C)C(=O)N[C@@H](CCC(N)=O)C(=O)NC(C)(C)C(=O)N[C@@H](CCC(=O)O)C(=O)N[C@@H](Cc1ccccc1)C(=O)N[C@H](C(=O)N[C@H](CCC(=O)O)C(=O)N[C@@H](Cc1ccc(O)cc1)C(=O)N[C@@H](CC(C)C)C(=O)N[C@H](C(=O)N[C@@H](CCC(=O)O)C(=O)NCC(=O)NCC(=O)N1CCC[C@H]1C(=O)N[C@@H](CO)C(=O)N[C@@H](CO)C(=O)NCC(=O)N[C@@H](C)C(=O)N1CCC[C@H]1C(=O)N1CCC[C@H]1C(=O)N1CCC[C@H]1C(=O)N[C@@H](CO)C(N)=O)[C@@H](C)CC)[C@@H](C)CC [Example 249] (H-Y[Aib]EGT[αMePhe(2-F)]TSDYSI[Nle]LD[Orn]K([AEEA-AEEA-γGlu-C18 diacid])AQ[Aib]EFI[dE]YLIEGGPSSGAPPPS-NH2) | 2.35 | 0.0394 | 0.0437 | 0.0446 | > 1000
CC[C@H](C)[C@H](NC(=O)[C@H](CC(C)C)NC(=O)[C@H](Cc1ccc(O)cc1)NC(=O)[C@@H](CCC(=O)O)NC(=O)[C@@H](NC(=O)[C@H](Cc1ccccc1)NC(=O)[C@H](CCC(=O)O)NC(=O)C(C)(C)NC(=O)[C@H](CCC(N)=O)NC(=O)[C@H](C)NC(=O)[C@H](CCCCNC(=O)COCCOCCNC(=O)COCCOCCNC(=O)CC[C@H](NC(=O)CCCCCCCCCCCCCCCCCCC(=O)O)C(=O)O)NC(=O)[C@H](CCCN)NC(=O)[C@H](CC(=O)O)NC(=O)[C@H](CC(C)C)NC(=O)C(C)(C)NC(=O)[C@@H](NC(=O)[C@H](CO)NC(=O)[C@H](Cc1ccc(O)cc1)NC(=O)[C@H](CC(=O)O)NC(=O)[C@H](CO)NC(=O)[C@@H](NC(=O)[C@](C)(Cc1ccccc1F)NC(=O)[C@@H](NC(=O)CNC(=O)[C@H](CCC(=O)O)NC(=O)C(C)(C)NC(=O)[C@@H](N)Cc1ccc(O)cc1)[C@@H](C)O)[C@@H](C)O)[C@@H](C)CC)[C@@H](C)CC)C(=O)N[C@@H](CCC(=O)O)C(=O)NCC(=O)NCC(=O)N1CCC[C@H]1C(=O)N[C@@H](CO)C(=O)N[C@@H](CO)C(=O)NCC(=O)N[C@@H](C)C(=O)N1CCC[C@H]1C(=O)N1CCC[C@H]1C(=O)N1CCC[C@H]1C(=O)N[C@@H](CO)C(N)=O [Example 250] (H-Y[Aib]EGT[αMePhe(2-F)]TSDYSI[Aib]LD[Orn]K([AEEA-AEEA-γGlu-C20 diacid])AQ[Aib]EFI[dE]YLIEGGPSSGAPPPS-NH2) | 1.72 | 0.0171 | 0.0376 | 0.0306 | 198
